Experimental data from patent publication US20200231614A1, “PSMA TARGETED RADIOHALOGENATED UREAS FOR CANCER RADIOTHERAPY” (THE JOHNS HOPKINS UNIVERSITY, priority 2015, published 2020).
Where two headings read alike, the source gives them in different places.

Columns and labels:
[1] = test system: PSMA + PC-3 PiP and PSMA − PC-3 flu tumor xenografts; settings: radioiodinated compound, Chen et al., 2008; cited from earlier work
[2] = test system: PSMA + PC-3 PiP and PSMA − PC-3 flu tumor xenografts; settings: for Biodistribution: PC-3 PiP: PSMA+ tumor xenograft; for Biodistribution: PC-3 flu: PSMA− tumor xenograft; for PSMA positive tumor uptake (in words): biodistributions of Tables 2, 3, 9, 10
[3] = 21 H post-injection, comparative Table 13

## O=C(O)CC[C@H](NC(=O)N[C@@H](CCCCNC(=O)c1ccc(I)cc1)C(=O)O)C(=O)O [YC-I-27]
[1]
  Tumor uptake (in words): high and prolonged tumor uptake

## O=C(O)CC[C@H](NC(=O)N[C@@H](CCCCNC(=O)c1ccc([131I])cc1)C(=O)O)C(=O)O [[^131I]YC-I-27]
[2]; 1 H post-injection
  Biodistribution: Sm int.: 1.83 ± 0.41 % ID/g
  Biodistribution: bladder: 2.99 ± 0.42 % ID/g
  Biodistribution: blood: 1.57 ± 0.69 % ID/g
  Biodistribution: heart: 1.88 ± 0.66 % ID/g
  Biodistribution: liver: 7.37 ± 1.29 % ID/g
  Biodistribution: lung: 4.67 ± 0.63 % ID/g
  Biodistribution: muscle: 0.73 ± 0.22 % ID/g
  Biodistribution: spleen: 21.2 ± 3.62 % ID/g
  Biodistribution: stomach: 0.92 ± 0.16 % ID/g
  Biodistribution: thyroid: 0.45 ± 0.14 % ID/g
  Biodistribution: PC-3 PiP: 13.1 ± 5.55 % ID/g
  Biodistribution: PC-3 flu: 0.62 ± 0.11 % ID/g
[2]; 2 H post-injection
  Biodistribution: Sm int.: 1.92 ± 0.55 % ID/g
  Biodistribution: bladder: 2.96 ± 1.12 % ID/g
  Biodistribution: blood: 0.86 ± 0.20 % ID/g
  Biodistribution: heart: 1.31 ± 0.58 % ID/g
  Biodistribution: liver: 5.69 ± 1.49 % ID/g
  Biodistribution: lung: 4.92 ± 1.95 % ID/g
  Biodistribution: muscle: 0.62 ± 0.19 % ID/g
  Biodistribution: spleen: 26.25 ± 15.11 % ID/g
  Biodistribution: stomach: 0.71 ± 0.46 % ID/g
  Biodistribution: thyroid: 0.24 ± 0.18 % ID/g
  Biodistribution: PC-3 PiP: 15.5 ± 4.19 % ID/g
  Biodistribution: PC-3 flu: 0.40 ± 0.11 % ID/g
[2]; 4 H post-injection
  Biodistribution: Sm int.: 1.37 ± 0.51 % ID/g
  Biodistribution: bladder: 1.37 ± 0.48 % ID/g
  Biodistribution: blood: 0.59 ± 0.27 % ID/g
  Biodistribution: heart: 0.87 ± 0.24 % ID/g
  Biodistribution: liver: 3.21 ± 1.14 % ID/g
  Biodistribution: lung: 2.72 ± 1.01 % ID/g
  Biodistribution: muscle: 0.43 ± 0.30 % ID/g
  Biodistribution: spleen: 18.2 ± 6.19 % ID/g
  Biodistribution: stomach: 0.69 ± 0.23 % ID/g
  Biodistribution: thyroid: 0.10 ± 0.22 % ID/g
  Biodistribution: PC-3 PiP: 16.3 ± 3.80 % ID/g
  Biodistribution: PC-3 flu: 0.22 ± 0.07 % ID/g
[2]; 21 H post-injection
  Biodistribution: Sm int.: 0.33 ± 0.12 % ID/g
  Biodistribution: bladder: 0.48 ± 0.09 % ID/g
  Biodistribution: blood: 0.16 ± 0.06 % ID/g
  Biodistribution: heart: 0.46 ± 0.22 % ID/g
  Biodistribution: liver: 0.56 ± 0.09 % ID/g
  Biodistribution: lung: 1.63 ± 0.47 % ID/g
  Biodistribution: muscle: 0.14 ± 0.03 % ID/g
  Biodistribution: spleen: 5.25 ± 1.51 % ID/g
  Biodistribution: stomach: 0.40 ± 0.07 % ID/g
  Biodistribution: thyroid: 0.13 ± 0.11 % ID/g
  Biodistribution: PC-3 PiP: 25.6 ± 10.2 % ID/g
  Biodistribution: PC-3 flu: 0.06 ± 0.01 % ID/g
[2]
  PSMA positive tumor uptake (in words): demonstrated PSMA positive tumor uptake

## N=C(N)NCc1ccc(C(=O)NCCCCC(NC(=O)CCCCCCC(=O)NCCCC[C@H](NC(=O)N[C@@H](CCC(=O)O)C(=O)O)C(=O)O)C(=O)O)cc1[211At] (stereo partly shown) [[^211At] labeled PSMA-904]
[2]; 1 H post-injection
  Biodistribution: Lrg Int.: 0.75 ± 0.98 % ID/g
  Biodistribution: Sm int.: 33.9 ± 5.49 % ID/g
  Biodistribution: bladder: 1.17 ± 0.20 % ID/g
  Biodistribution: blood: 0.65 ± 0.33 % ID/g
  Biodistribution: heart: 0.84 ± 0.27 % ID/g
  Biodistribution: kidney: 86.5 ± 15.5 % ID/g
  Biodistribution: liver: 5.11 ± 4.13 % ID/g
  Biodistribution: lung: 2.24 ± 0.51 % ID/g
  Biodistribution: muscle: 0.38 ± 0.16 % ID/g
  Biodistribution: spleen: 9.51 ± 2.76 % ID/g
  Biodistribution: stomach: 1.64 ± 0.62 % ID/g
  Biodistribution: thyroid: 0.51 ± 0.16 % ID/g
  Biodistribution: PC-3 PiP: 22.7 ± 5.42 % ID/g
  Biodistribution: PC-3 flu: 0.80 ± 0.30 % ID/g
[2]; 2 H post-injection
  Biodistribution: Lrg Int.: 26.7 ± 15.3 % ID/g
  Biodistribution: Sm int.: 13.8 ± 10.9 % ID/g
  Biodistribution: bladder: 1.30 ± 0.24 % ID/g
  Biodistribution: blood: 0.35 ± 0.03 % ID/g
  Biodistribution: heart: 0.76 ± 0.11 % ID/g
  Biodistribution: kidney: 87.7 ± 11.0 % ID/g
  Biodistribution: liver: 3.80 ± 2.39 % ID/g
  Biodistribution: lung: 1.96 ± 0.26 % ID/g
  Biodistribution: muscle: 0.21 ± 0.03 % ID/g
  Biodistribution: spleen: 4.31 ± 1.96 % ID/g
  Biodistribution: stomach: 2.86 ± 0.67 % ID/g
  Biodistribution: thyroid: 1.03 ± 0.26 % ID/g
  Biodistribution: PC-3 PiP: 21.1 ± 6.16 % ID/g
  Biodistribution: PC-3 flu: 0.52 ± 0.05 % ID/g
[2]; 21 H post-injection
  Biodistribution: Lrg Int.: 8.55 ± 5.07 % ID/g
  Biodistribution: Sm int.: 1.51 ± 0.91 % ID/g
  Biodistribution: bladder: 1.99 ± 0.54 % ID/g
  Biodistribution: blood: 0.48 ± 0.13 % ID/g
  Biodistribution: heart: 1.12 ± 0.27 % ID/g
  Biodistribution: kidney: 4.38 ± 3.46 % ID/g
  Biodistribution: liver: 0.59 ± 0.21 % ID/g
  Biodistribution: lung: 2.89 ± 0.93 % ID/g
  Biodistribution: muscle: 0.22 ± 0.06 % ID/g
  Biodistribution: spleen: 2.07 ± 0.68 % ID/g
  Biodistribution: stomach: 9.36 ± 2.18 % ID/g
  Biodistribution: thyroid: 3.74 ± 1.42 % ID/g
  Biodistribution: PC-3 PiP: 12.1 ± 5.03 % ID/g
  Biodistribution: PC-3 flu: 0.84 ± 0.23 % ID/g

## O=C(O)CC[C@H](NC(=O)N[C@@H](CCC(=O)NCCc1ccc([211At])cc1)C(=O)O)C(=O)O [[^211At]HS-549]
[2]; 1 H post-injection
  Biodistribution: Lrg Int.: 1.16 ± 0.20 % ID/g
  Biodistribution: Sm int.: 5.52 ± 0.82 % ID/g
  Biodistribution: bladder: 5.85 ± 1.62 % ID/g
  Biodistribution: blood: 5.53 ± 0.84 % ID/g
  Biodistribution: heart: 4.34 ± 0.96 % ID/g
  Biodistribution: kidney: 46.7 ± 8.24 % ID/g
  Biodistribution: liver: 7.94 ± 2.15 % ID/g
  Biodistribution: lung: 9.77 ± 1.75 % ID/g
  Biodistribution: muscle: 1.11 ± 0.29 % ID/g
  Biodistribution: spleen: 8.79 ± 2.09 % ID/g
  Biodistribution: stomach: 7.07 ± 2.24 % ID/g
  Biodistribution: thyroid: 3.24 ± 0.56 % ID/g
  Biodistribution: PC-3 PiP: 43.25 ± 9.81 % ID/g
  Biodistribution: PC-3 flu: 3.48 ± 0.53 % ID/g
[2]; 2 H post-injection
  Biodistribution: Lrg Int.: 4.59 ± 0.81 % ID/g
  Biodistribution: Sm int.: 3.81 ± 1.24 % ID/g
  Biodistribution: bladder: 5.04 ± 0.87 % ID/g
  Biodistribution: blood: 2.87 ± 0.40 % ID/g
  Biodistribution: heart: 3.36 ± 0.59 % ID/g
  Biodistribution: kidney: 40.4 ± 15.5 % ID/g
  Biodistribution: liver: 4.65 ± 1.28 % ID/g
  Biodistribution: lung: 8.24 ± 2.25 % ID/g
  Biodistribution: muscle: 0.76 ± 0.18 % ID/g
  Biodistribution: spleen: 6.13 ± 1.59 % ID/g
  Biodistribution: stomach: 14.3 ± 3.18 % ID/g
  Biodistribution: thyroid: 4.11 ± 2.0 % ID/g
  Biodistribution: PC-3 PiP: 42.0 ± 7.16 % ID/g
  Biodistribution: PC-3 flu: 2.82 ± 0.60 % ID/g
[2]; 21 H post-injection
  Biodistribution: Lrg Int.: 0.93 ± 0.41 % ID/g
  Biodistribution: Sm int.: 1.28 ± 0.30 % ID/g
  Biodistribution: bladder: 2.78 ± 0.82 % ID/g
  Biodistribution: blood: 0.92 ± 0.15 % ID/g
  Biodistribution: kidney: 2.60 ± 0.77 % ID/g
  Biodistribution: liver: 0.89 ± 0.13 % ID/g
  Biodistribution: lung: 4.26 ± 0.72 % ID/g
  Biodistribution: muscle: 0.29 ± 0.09 % ID/g
  Biodistribution: spleen: 2.31 ± 0.67 % ID/g
  Biodistribution: stomach: 12.6 ± 6.20 % ID/g
  Biodistribution: thyroid: 3.78 ± 0.63 % ID/g
  Biodistribution: PC-3 PiP: 10.6 ± 9.91 % ID/g
[2]; [3]
  Non-target organ uptake: spleen: 2.2 % D/g
  Non-target organ uptake: stomach: 12.6 % D/g
  Non-target organ uptake: thyroid: 3.8 % D/g
[2]
  PSMA positive tumor uptake (in words): demonstrated PSMA positive tumor uptake
[2]; compared with YC-I-27
  Renal clearance and normal tissue uptake (in words): faster renal clearance and lower normal tissue uptake than YC-I-27
[2]; compared with [^131I]YC-I-27 and [^211At]YC-I-27
  Clearance from the kidneys (in words): clear from the kidneys giving higher tumor to kidney ratios
[2]; from uptake in stomach, spleen and thyroid compared to the ^131I analogue
  In vivo stability of the At-211 label (in words): some instability of the At-211 label
